# Measured values as given in ChEMBL document CHEMBL1201862, “PubChem BioAssay data set” (2004).
# The source made the active and inactive calls.
# Columns and labels:
# [1] = target: T1, Histone-lysine N-methyltransferase NSD2 (Homo sapiens, UniProt O96028); format: biochemical
# T1 sequence (O96028 whole entry): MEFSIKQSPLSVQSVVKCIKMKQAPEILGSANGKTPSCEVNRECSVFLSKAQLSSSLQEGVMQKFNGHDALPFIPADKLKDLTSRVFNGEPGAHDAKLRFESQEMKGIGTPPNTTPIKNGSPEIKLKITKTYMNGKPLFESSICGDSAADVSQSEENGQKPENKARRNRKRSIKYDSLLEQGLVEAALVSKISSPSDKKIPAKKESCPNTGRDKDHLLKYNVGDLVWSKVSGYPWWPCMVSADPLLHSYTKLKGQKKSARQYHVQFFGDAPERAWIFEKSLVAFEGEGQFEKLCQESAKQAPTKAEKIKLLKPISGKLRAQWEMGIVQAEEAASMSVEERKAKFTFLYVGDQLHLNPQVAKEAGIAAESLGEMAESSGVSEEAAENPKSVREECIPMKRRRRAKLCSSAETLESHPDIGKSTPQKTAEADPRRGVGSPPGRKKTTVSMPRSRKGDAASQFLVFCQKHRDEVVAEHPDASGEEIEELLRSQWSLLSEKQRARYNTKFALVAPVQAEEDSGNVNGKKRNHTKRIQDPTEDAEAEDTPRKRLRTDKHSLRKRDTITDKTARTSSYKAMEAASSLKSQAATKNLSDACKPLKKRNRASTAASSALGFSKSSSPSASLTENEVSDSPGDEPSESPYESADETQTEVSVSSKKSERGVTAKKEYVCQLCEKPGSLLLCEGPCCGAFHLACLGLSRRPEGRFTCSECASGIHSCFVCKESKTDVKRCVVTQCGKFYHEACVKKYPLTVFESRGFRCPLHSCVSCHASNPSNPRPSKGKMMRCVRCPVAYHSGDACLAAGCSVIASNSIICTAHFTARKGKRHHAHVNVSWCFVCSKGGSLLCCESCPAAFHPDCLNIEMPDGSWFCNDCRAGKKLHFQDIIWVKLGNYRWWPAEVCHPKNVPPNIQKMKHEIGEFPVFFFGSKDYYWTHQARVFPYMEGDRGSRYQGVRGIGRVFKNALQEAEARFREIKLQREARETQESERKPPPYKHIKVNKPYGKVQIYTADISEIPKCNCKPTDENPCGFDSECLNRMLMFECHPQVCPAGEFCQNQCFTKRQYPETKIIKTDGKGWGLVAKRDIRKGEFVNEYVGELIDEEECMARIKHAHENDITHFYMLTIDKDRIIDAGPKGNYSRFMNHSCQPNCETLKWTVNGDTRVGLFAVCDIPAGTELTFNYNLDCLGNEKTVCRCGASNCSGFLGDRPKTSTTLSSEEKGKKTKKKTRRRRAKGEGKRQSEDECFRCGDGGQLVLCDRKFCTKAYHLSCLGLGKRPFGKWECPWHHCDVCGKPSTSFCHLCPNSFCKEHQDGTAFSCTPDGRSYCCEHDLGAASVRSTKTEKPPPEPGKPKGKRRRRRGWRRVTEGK
# Mu-type opioid receptor = Mu-type opioid receptor (Homo sapiens, UniProt P35372); format: functional, cell-based;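 further: U2OS cells with beta-arrestin recruitment to OPRM1 by beta-gal complementation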
# Sequence of Mu-type opioid receptor (P35372 whole entry): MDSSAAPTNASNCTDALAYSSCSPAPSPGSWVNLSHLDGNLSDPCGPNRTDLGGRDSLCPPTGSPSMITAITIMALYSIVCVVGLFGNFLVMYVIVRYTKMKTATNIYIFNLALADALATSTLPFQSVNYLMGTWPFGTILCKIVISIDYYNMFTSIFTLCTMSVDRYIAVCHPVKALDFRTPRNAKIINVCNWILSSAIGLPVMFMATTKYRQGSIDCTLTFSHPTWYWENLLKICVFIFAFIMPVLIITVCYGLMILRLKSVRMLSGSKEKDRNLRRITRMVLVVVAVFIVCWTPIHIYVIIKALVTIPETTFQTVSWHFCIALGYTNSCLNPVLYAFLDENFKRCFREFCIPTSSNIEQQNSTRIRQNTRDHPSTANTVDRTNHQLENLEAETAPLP
# [2] = target: 5-hydroxytryptamine receptor 2A (Mus musculus, UniProt P35363); format: functional, cell-based;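 further: CHO-K1 cells with tagged receptor and beta-arrestin; agonist potency measured as compound-induced activation of the receptor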
# Sequence of 5-hydroxytryptamine receptor 2A (P35363 whole entry): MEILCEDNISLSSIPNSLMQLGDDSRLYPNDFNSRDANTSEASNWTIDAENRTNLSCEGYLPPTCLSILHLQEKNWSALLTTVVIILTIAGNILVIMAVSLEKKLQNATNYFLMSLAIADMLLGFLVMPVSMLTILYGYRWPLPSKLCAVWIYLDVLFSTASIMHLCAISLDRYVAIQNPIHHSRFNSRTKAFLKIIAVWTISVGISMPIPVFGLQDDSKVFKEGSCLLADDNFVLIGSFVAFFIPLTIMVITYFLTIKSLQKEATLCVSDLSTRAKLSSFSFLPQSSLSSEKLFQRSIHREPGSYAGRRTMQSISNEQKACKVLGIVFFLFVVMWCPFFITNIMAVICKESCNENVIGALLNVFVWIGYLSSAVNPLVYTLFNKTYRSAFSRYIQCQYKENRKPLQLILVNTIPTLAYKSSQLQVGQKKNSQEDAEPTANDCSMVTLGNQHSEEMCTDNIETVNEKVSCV
# Paired box protein Pax-8 = Paired box protein Pax-8 (Homo sapiens, UniProt Q06710); test: inhibitors of PAX8-driven TPO luciferase reporter, dose response, RMG-I cells, cherry-pick (AID 687027); format: functional, cell-based;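 further: luciferase reporter driven by Pax8 target thyroperoxidase promoter measured by SteadyGlo luminescence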
# Sequence of Paired box protein Pax-8 (Q06710 whole entry): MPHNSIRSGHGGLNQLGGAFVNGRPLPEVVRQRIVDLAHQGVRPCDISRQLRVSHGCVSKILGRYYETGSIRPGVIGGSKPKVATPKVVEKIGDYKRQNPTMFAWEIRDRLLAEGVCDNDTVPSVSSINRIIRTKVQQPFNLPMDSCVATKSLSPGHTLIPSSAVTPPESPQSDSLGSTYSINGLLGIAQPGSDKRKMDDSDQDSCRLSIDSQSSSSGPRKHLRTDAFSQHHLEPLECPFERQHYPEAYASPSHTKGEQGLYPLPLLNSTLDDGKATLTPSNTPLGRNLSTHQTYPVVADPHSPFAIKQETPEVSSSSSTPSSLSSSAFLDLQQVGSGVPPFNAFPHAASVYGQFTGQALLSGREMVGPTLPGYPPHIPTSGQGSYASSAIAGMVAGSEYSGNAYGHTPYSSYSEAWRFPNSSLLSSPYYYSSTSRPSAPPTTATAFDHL
# [3] = cytotoxicity in OVCAR8 ovarian cancer cells, dose response, PAX8 project, cell-based, plate reader, dry powder samples (AID 743197); format: functional; details: OVCAR-8
# [4] = human group III sPLA2 inhibitors, dose response, biochemical, QFRET, IC50 (AID 743457);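 further: green fluorescence rise as the enzyme cleaves BODIPY PC-A2 in liposomes; potency for inhibition of the enzyme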
# [5] = cytotoxicity in HPDE-C7 cells, cell-based, fluorescence, HTS (AID 430); format: functional; details: Homo sapiens
# [6] = inhibitors of intracellular T. cruzi replication, confirmation, NIH3T3 host cells, beta-gal luminescence (AID 2044); format: functional, cell-based;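 further: intracellular parasites grown in NIH/3T3 mouse fibroblasts as host cells; luminescent beta-galactosidase reporter signal from transgenic T. cruzi replicating inside host cells; inhibitors lower the luminescence signal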
# [7] = cytotoxicity in KRAS-transformed pancreatic duct cells, primary screen, cell-based, fluorescence, HTS (AID 431); format: functional; details: Homo sapiens;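 further: cell line used: HPDE-C7K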
# [8] = growth suppression of PTEN-null colon cells, dose response, cell-based, HCT116 PTEN knockout (AID 1047); format: functional;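 further: HCT116 colon tumor cells with PTEN knocked out; cells exposed to compound for 60 hours before readout; potency for loss of cell viability measured by luminescence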
# [9] = cytotoxicity toward NIH3T3 fibroblasts, dose response, counter-screen, cell-based, ATP luminescence, mouse fibroblasts (AID 2010); format: functional;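 further: cells exposed to compound for about 90 hours before reading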
# [10] = growth suppression of beta-catenin-knockout colon cells, dose response, cell-based, HCT116, human colon tumor (AID 1045); format: functional;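 further: HCT116 colon tumor cells with beta catenin knocked out; cells exposed to compound for 60 hours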
# Vero = Vero cell cytotoxicity, cytotoxicity control for flavivirus capping enzyme inhibitors (AID 588742); format: functional; details: Chlorocebus sabaeus
# [11] = NIH-3T3 fibroblast cytotoxicity, dose response, cytotoxicity control, cell-based, fluorescence, Alamar Blue, secondary assay (AID 2327); format: functional;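 further: NIH-3T3 mouse fibroblasts cultured with fluconazole at 8 µg/mL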
# [12] = C. albicans growth with fluconazole, confirmation, fluorescence, retest (AID 2467); format: functional, cell-based
# [13] = target: T2, Serine/threonine-protein phosphatase (Candida dubliniensis (strain CD36 / CBS 7987 / NCPF 3949 / NRRLY-17841) (Yeast), UniProt B9W6M3); test: calcineurin pathway inhibitors in yeast reporter, dose response, S. cerevisiae, CDRE-lacZ, luminescence, secondary (AID 2388); format: functional, cell-based;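 further: yeast reporter cells carrying a calcineurin-responsive lacZ construct stimulated with calcium chloride; luminescent beta-galactosidase reporter signal in whole cells rather than isolated phosphatase activity; potency for inhibition where a drop in reporter signal means calcineurin blockade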
# T2 sequence (B9W6M3 whole entry): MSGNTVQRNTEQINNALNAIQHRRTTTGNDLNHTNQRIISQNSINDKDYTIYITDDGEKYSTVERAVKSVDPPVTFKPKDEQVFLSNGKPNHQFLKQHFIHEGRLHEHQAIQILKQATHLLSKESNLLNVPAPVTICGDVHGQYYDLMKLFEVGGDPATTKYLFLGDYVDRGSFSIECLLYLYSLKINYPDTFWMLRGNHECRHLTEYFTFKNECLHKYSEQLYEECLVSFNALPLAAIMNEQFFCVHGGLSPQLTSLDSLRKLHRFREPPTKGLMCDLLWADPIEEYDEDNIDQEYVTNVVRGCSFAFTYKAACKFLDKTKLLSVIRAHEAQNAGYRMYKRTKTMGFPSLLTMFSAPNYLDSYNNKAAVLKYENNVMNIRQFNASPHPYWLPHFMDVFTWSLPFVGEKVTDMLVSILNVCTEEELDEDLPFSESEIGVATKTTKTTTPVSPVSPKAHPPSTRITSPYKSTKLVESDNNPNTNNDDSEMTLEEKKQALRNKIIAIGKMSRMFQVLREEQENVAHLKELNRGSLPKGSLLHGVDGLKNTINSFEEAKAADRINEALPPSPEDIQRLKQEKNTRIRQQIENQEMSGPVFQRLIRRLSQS
# [14] = Luminescence Cell-Based Dose Retest to Confirm Inhibitors of Cancer Stem Cells. [Related pubchem assays (depositor defined):AID2717, AID2721]; format: functional; details: Homo sapiens
# [15] = target: ATP-dependent molecular chaperone HSP82 (Candida albicans (strain WO-1) (Yeast), UniProt C4YTQ8); test: loss of DOC-induced GRE-beta-galactosidase reporter signal, dose response, Hsp90 inhibitor project, S. cerevisiae, luminescence (AID 2400); format: functional, cell-based;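 further: beta-galactosidase luminescence from glucocorticoid response element reporter as proxy for Hsp90 function; inhibitor potency where signal loss means Hsp90 inhibition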
# Sequence of ATP-dependent molecular chaperone HSP82 (C4YTQ8 whole entry): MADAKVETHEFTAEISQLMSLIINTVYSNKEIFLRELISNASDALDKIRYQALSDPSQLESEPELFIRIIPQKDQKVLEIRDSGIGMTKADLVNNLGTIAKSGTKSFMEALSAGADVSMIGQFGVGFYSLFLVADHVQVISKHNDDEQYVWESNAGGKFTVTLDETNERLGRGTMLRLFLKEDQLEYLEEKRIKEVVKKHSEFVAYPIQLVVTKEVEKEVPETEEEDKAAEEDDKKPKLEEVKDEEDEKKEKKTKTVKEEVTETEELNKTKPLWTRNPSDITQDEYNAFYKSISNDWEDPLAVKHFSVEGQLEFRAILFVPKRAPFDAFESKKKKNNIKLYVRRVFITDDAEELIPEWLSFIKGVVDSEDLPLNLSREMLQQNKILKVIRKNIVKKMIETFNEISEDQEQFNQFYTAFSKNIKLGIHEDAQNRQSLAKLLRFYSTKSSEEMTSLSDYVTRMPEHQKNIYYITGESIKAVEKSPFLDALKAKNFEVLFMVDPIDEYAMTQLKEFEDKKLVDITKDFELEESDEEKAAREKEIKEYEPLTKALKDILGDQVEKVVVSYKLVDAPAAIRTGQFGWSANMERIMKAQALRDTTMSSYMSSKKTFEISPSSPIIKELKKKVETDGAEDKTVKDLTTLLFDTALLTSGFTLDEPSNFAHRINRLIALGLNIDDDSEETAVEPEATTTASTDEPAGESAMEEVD
# [16] = A549 cell cytotoxicity, dose response, cytotoxicity control, plate reader, cherry-pick, antagonist series (AID 743412); format: functional, cell-based
# [17] = HepG2 cell cytotoxicity, dose response, cytotoxicity control, plate reader, cherry-pick, antagonist series (AID 743416); format: functional, cell-based
# [18] = LGR2 antagonists, dose response, cell-based, HEK293, CRE-luciferase reporter, cherry pick, set 2 (AID 743343); format: functional;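 further: transfected cells were stimulated with diluted bursicon conditioned medium after compound addition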
# [19] = MC4R antagonists, dose response, counter-screen for LGR2 antagonist project, cell-based, plate reader, cherry pick (AID 743444); format: functional;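 further: transfected HEK 293 cells stimulated with alpha-MSH peptide; potency of inhibitors of the alpha-MSH evoked signal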
# [20] = HEK293 cell cytotoxicity, dose response, cytotoxicity control, plate reader, cherry-picked samples (AID 743446); format: functional, cell-based
# [21] = target: T3, Heat shock factor protein 1 (Mus musculus, UniProt P38532); test: inhibition of MG132-induced HSE-luciferase signal, confirmation, cell-based, NIH3T3, luminescence, dose retest (AID 2382); format: functional;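 further: NIH3T3 fibroblasts with HSF1-driven luciferase reporter stressed by proteasome inhibitor MG132; luminescence from HSF1-driven luciferase expression after 8 hours of MG132 stress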
# T3 sequence (P38532 whole entry): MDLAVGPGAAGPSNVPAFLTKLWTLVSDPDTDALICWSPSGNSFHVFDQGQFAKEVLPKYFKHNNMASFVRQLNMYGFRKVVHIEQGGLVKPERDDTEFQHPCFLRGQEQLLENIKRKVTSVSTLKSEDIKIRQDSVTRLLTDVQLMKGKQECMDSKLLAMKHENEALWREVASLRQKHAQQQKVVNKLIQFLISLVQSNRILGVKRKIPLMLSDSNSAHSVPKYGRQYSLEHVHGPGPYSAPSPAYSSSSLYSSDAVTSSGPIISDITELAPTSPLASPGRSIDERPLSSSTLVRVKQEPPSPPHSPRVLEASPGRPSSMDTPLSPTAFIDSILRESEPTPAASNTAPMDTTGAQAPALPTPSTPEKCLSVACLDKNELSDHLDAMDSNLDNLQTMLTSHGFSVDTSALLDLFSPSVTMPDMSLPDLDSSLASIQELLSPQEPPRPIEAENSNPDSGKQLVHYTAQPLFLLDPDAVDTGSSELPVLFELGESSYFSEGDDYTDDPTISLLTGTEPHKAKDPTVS
# [22] = target: Dual specificity tyrosine-phosphorylation-regulated kinase 1A (Rattus norvegicus, UniProt Q63470); format: biochemical, Homo sapiens
# [23] = target: T4, Oxysterols receptor LXR-beta (Homo sapiens, UniProt P55055); format: functional, cell-based;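 further: Cell-based luminescence dose-response assay of agonist activity at LXR, run as a confirmatory counterscreen to a daf-12 agonist screen; HEK293 cells with Gal4-LXR fusion and GAL4-driven luciferase reporter; agonist potency from rising luciferase signal of a Gal4-LXR reporter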
# T4 sequence (P55055 whole entry): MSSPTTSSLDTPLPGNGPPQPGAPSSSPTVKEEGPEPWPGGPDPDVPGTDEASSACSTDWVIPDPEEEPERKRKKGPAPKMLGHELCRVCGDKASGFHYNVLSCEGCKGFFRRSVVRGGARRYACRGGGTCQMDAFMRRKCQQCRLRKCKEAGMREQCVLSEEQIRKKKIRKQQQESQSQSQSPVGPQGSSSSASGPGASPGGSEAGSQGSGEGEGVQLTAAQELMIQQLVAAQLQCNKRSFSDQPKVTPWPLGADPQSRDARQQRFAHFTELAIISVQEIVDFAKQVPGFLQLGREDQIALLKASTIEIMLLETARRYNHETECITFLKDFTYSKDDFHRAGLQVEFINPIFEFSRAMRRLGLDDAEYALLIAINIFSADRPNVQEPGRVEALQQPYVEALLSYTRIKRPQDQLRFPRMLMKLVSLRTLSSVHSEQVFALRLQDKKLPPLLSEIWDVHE
# [24] = target: T5, Rac GTPase-activating protein 1 (Homo sapiens, UniProt Q9H0H5); test: MgcRacGAP GTPase-activating activity inhibitors, confirmation, biochemical, ADP Hunter fluorescence, primary and confirmatory (AID 624330); format: functional
# T5 sequence (Q9H0H5 whole entry): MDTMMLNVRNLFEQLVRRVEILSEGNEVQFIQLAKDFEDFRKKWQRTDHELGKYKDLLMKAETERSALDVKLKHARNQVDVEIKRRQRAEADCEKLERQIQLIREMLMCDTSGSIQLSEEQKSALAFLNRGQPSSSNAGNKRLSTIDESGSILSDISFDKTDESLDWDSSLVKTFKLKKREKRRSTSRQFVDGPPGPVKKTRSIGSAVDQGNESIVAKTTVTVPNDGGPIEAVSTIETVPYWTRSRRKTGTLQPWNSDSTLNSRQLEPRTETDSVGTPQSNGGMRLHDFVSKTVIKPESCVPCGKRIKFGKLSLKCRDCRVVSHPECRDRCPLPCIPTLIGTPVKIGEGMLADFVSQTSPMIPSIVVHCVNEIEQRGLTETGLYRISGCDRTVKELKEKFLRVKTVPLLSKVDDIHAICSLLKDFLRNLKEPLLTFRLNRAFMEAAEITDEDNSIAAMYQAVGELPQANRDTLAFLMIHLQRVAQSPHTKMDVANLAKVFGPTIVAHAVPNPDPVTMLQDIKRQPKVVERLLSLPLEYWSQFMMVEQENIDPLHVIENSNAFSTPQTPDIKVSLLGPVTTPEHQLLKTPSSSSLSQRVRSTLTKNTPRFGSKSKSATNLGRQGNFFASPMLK
smiles,measurement,setting,value
CCN1/C(=C/C(C)=C/c2sc3ccccc3[n+]2CC)Sc2ccccc21,AC50,[1],7.11 µM (active)
CC(=O)c1cccc(OCC(O)CNCC2COc3ccccc3O2)c1 (stereo not drawn),EC50,Mu-type opioid receptor,92.5 µM (inactive)
same,EC50,[2],2.85 µM (active)
CCN(CC)CCCNc1cc(C(F)(F)F)c(C#N)c2nc3ccccc3n12,AC50,[1],> 20 µM (inactive)
C[C@H]1CN([C@@H](C)CO)S(=O)(=O)c2ccc(-c3ccc(C#N)cc3)cc2O[C@@H]1CN(C)Cc1cccc(F)c1,AC50,Paired box protein Pax-8,8.67 µM (active)
same,AC50,[3],> 60 µM (inactive)
Cc1cccc(NC(S)=NNC(=O)c2ccc3c(c2)OCO3)c1,IC50,[4],> 122 µM (inactive)
CN1CCc2c(C#N)c(N3CCCCC3)nc(NCc3ccccc3)c2C1,EC50,[5],16.8 µM (active)
same,EC50,[6],0.639 µM (active)
same,EC50,[7],2.44 µM (active)
same,EC50,[8],17.8 µM (active)
same,EC50,[9],> 60 µM (not active)
same,EC50,[10],13.5 µM (active)
same,CC50,Vero,> 40 µM (active)
Oc1ccc(C2=CCNCC2)cc1O,EC50,Mu-type opioid receptor,92.4 µM (inactive)
same,EC50,[2],0.0242 µM (active)
O=[N+]([O-])c1cccc(-c2cc(-c3cc(Br)ccc3O)n[nH]2)c1,EC50,[11],19 µM (inconclusive)
same,EC50,[12],0.954 µM (active)
same,EC50,[13],> 180 µM (inactive)
same,AC50,[14],2.03 µM (active)
same,EC50,[15],11.9 µM (active)
N#C[C@@H]1[C@H](c2ccc(C#Cc3ccc(F)cc3)cc2)[C@@H](CO)N1C(=O)C1CCCC1,AC50,[16],19.1 µM (active)
same,AC50,[17],18.5 µM (active)
same,AC50,[18],15.8 µM (active)
same,AC50,[19],13.1 µM (active)
same,AC50,[20],50.9 µM (active)
C(=N\NC1=Nc2cccc3cccc1c23)/c1ccccn1,EC50,[11],2.55 µM (inconclusive)
same,EC50,[21],3.2 µM (active)
same,EC50,[12],1.05 µM (active)
same,EC50,[6],0.619 µM (active)
same,EC50,[9],> 60 µM (not active)
same,AC50,[22],9.7 µM (active)
same,EC50,[23],> 67.5 µM (inactive)
same,EC50,cells,> 67.5 µM (inactive)
C/C(=N\NC(=S)Nc1ccc(C)cc1)c1cc2ccccc2o1.CN(C)C=O,IC50,[4],31.8 µM (inactive)
Cc1ccc(S(=O)(=O)N2CCOCC2)cc1NC(=O)CNCc1cccnc1,EC50,Mu-type opioid receptor,92.5 µM (inactive)
same,EC50,[2],6.05 µM (active)
same,IC50,[24],108 µM (active)
